For one experiment, the system named is LNCaP C4-2. Nature of the experiment: Cytotoxicity against human C4-2 cells assessed as reduction in cell viability incubated for 72 hrs by MTT assay. The format is functional, cell-based. For orientation: Tetrazolium assays rely on reduction of a dye to a coloured formazan, in cell work by metabolically active cells.
Experiment [1] deals with T1, Androgen receptor (Homo sapiens) (UniProt P10275).
T1 sequence (whole entry): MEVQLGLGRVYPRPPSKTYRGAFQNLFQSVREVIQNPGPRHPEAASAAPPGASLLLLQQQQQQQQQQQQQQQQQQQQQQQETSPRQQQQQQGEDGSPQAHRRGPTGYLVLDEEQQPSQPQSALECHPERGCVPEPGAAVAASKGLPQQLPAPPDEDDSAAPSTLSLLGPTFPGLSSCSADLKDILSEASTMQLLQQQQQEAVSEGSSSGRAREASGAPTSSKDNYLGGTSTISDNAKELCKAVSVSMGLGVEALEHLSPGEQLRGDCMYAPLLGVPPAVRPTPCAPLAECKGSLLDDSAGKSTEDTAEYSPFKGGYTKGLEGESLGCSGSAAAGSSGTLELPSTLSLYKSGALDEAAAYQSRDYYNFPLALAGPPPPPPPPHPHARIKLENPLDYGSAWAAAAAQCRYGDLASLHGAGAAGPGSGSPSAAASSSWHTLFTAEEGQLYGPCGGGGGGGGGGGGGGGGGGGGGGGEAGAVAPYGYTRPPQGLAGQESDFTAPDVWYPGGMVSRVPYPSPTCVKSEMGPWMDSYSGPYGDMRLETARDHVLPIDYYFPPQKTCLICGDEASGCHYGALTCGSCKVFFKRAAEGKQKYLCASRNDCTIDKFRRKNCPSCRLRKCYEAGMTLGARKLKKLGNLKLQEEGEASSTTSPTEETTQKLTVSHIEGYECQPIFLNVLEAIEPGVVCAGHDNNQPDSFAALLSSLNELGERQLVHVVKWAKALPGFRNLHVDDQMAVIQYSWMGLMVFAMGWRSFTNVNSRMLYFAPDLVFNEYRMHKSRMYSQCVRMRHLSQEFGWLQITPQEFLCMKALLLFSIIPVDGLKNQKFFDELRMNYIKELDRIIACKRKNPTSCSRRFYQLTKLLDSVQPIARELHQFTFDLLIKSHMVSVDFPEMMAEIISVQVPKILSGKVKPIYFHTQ
The experiment in a line: Antagonist activity at androgen receptor in human LNCaP cells assessed as reduction in DHT-induced TMPRSS2 mRNA expression after 48 hrs by SYBR green dye based qPCR analysis. The settings on record: filed as antagonist, dose 0.1-10 µM. The format is cell-based. On the technique in general: Quantitative PCR measures a nucleic acid by following its amplification.

For experiment [2], the target named is T1, Androgen receptor (Homo sapiens). Nature of the experiment: Antagonist activity at androgen receptor in human LNCaP cells assessed as reduction in DHT-induced PSA mRNA expression after 48 hrs by SYBR green dye based qPCR analysis. The settings on record: filed as antagonist, dose 0.1-10 µM. The class given is cell-based.
A further experiment concerns MCF7. Nature of the experiment: Cytotoxicity against human MCF7 cells assessed as reduction in cell viability at 50 uM incubated for 72 hrs by MTT assay. The format is functional, cell-based.
In experiment [3] the target is T2, Progesterone receptor (Homo sapiens) (UniProt P06401).
T2 sequence (whole entry): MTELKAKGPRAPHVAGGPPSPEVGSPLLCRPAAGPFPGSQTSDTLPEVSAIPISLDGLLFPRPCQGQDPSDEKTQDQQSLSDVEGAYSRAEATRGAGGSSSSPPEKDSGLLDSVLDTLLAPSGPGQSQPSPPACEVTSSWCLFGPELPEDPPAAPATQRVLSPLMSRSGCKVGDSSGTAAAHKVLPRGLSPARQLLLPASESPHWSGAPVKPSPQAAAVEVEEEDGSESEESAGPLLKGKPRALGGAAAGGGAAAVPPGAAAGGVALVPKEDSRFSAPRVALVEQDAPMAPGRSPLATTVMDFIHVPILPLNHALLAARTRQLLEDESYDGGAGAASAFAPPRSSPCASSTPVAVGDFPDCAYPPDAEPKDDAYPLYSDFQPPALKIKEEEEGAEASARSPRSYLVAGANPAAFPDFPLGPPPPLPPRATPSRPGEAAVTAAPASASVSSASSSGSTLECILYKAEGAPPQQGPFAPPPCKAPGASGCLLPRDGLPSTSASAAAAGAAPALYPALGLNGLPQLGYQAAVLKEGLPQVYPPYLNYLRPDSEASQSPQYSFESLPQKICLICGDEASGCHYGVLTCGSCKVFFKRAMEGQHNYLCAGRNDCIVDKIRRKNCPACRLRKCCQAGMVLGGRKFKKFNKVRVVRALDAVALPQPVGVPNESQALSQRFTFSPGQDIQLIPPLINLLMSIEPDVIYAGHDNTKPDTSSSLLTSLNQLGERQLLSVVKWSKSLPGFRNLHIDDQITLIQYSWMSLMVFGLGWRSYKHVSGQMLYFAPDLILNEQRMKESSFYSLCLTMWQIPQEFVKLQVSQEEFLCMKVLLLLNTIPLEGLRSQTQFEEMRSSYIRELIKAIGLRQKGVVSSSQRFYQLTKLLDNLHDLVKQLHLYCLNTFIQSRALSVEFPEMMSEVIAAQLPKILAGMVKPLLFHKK
The experiment in a line: Agonist activity at progesterone receptor in human HEK293T cells by dual-Glo luciferase assay. The class given is cell-based.

Experiment [4] deals with T3, Mineralocorticoid receptor (Homo sapiens) (UniProt P08235).
T3 sequence (whole entry): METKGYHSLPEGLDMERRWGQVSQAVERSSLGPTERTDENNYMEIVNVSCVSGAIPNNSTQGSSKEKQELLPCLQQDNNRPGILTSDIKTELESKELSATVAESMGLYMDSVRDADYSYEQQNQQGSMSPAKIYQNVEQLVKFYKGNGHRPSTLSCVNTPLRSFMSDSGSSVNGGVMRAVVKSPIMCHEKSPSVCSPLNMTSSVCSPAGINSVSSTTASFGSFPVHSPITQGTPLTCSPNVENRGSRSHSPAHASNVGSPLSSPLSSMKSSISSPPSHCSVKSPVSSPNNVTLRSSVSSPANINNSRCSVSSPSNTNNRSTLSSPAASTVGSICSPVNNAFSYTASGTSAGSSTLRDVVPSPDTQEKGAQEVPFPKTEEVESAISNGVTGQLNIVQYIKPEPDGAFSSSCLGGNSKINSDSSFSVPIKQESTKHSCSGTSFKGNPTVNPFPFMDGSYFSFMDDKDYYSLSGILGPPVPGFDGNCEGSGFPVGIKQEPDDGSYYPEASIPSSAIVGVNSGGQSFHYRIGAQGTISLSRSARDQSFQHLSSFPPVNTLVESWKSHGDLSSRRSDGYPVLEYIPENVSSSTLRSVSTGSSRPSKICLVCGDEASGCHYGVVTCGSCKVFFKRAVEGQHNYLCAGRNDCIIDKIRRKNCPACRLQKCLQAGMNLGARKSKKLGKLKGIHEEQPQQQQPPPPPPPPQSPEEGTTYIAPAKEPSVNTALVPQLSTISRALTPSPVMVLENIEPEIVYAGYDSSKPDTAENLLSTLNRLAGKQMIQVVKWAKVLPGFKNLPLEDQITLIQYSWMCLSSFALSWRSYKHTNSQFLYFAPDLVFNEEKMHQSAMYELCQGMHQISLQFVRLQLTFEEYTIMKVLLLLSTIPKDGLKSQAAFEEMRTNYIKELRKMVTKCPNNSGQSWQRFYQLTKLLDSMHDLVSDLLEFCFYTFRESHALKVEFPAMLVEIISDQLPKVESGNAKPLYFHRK
The experiment in a line: Agonist activity at mineralocorticoid receptor in human PC-3 cells by dual-Glo luciferase assay. The class given is cell-based.

The structures appear in SMILES notation. The source made the active and inactive calls. The calls are words filed in the database; no cut-off is given here.

Turning to `O=c1cc(C(F)(F)F)c2ccc(OCc3ccc(Br)cc3)cc2o1`, the result in the experiment with LNCaP C4-2 and in the experiment with MCF7 was Active. The Activity result in experiment [1] and in experiment [2] was “Dose-dependent effect” throughout. In addition, the outcome in experiment [3] and in experiment [4] was inactive.

(Values after ChEMBL document CHEMBL5055679, “Discovery of a Novel Androgen Receptor Antagonist Manifesting Evidence to Disrupt the Dimerization of the Ligand-Binding Domain via Attenuating the Hydrogen-Bonding Network Between the Two Monomers” (J Med Chem, 2021).)
